The text below walks through data of patent US20220304945A1, “METHODS OF TREATING METABOLIC SYNDROME RELATED CONDITIONS USING RETINOIC ACID RECEPTOR AGONISTS” (Cornell University, priority 2014, published 2022).

By pEC50 is commonly meant −log10 of the EC50, conventionally taken in molar units.

One assay concerns the target T1, RARβ2 (Homo sapiens, UniProt P10826).
T1 sequence (P10826 1-448 isoform P10826-2): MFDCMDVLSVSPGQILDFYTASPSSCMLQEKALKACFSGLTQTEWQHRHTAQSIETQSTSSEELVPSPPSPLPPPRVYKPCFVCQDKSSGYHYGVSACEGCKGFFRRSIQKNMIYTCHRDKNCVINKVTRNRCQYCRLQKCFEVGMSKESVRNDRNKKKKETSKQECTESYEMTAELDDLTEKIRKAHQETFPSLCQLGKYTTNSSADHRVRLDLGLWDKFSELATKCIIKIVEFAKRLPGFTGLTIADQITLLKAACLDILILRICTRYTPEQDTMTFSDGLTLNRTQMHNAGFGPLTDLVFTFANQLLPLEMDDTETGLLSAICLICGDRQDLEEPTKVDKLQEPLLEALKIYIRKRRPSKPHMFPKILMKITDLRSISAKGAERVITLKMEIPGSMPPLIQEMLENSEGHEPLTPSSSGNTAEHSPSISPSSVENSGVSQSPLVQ
Experiment: not given
Details: expressed in transfected cells. Conditions: from Table 1 and Table 2 of WO2007/009083; cited from earlier work.
Consider `CCCCCCCCOc1ccc(-c2ccc(C(=O)NCCc3ccccn3)cc2)cc1` [Compound 54], for which the “% Eff.” value was 39%.
`CCCCC(CC)COc1nc(-c2ccc(C(=O)O)cc2)sc1C` (stereo not drawn) [Compound 46]: the “% Eff.” value is recorded as 54%.
`CCCCCCCCc1ccc(-c2ccc(C(=O)O)cc2)cc1` [Compound 35]: the “% Eff.” value is 83%.
Regarding `CCCCOCCOc1nc(-c2ccc(C(=O)O)cc2)sc1C` [Compound 27], the “% Eff.” value was 95%.
In the case of `Cc1sc(-c2ccc(C(=O)O)cc2)nc1OCC(=O)NC1CCC(C)CC1` (stereo not drawn) [Compound 58], the “% Eff.” value is reported as 66%.
Consider `Cc1sc(-c2ccc(C(=O)O)cc2)nc1OCC(=O)NC1CCCCCC1` [Compound 56], for which the “% Eff.” value is 105%.
As to `CCCCCCCCOc1ccc(-c2ccc(C(=O)NCCC#N)cc2)cc1` [Compound 51], the “% Eff.” value is 59%.
As for `CCCCCCNC(=O)COc1nc(-c2ccc(C(=O)O)cc2)sc1C` [Compound 13], the “% Eff.” value is on record as 85%.
On to `CCCCCCCc1ccc(-c2ccc(C(=O)O)c(C)c2)cc1` [Compound 52], for which the “% Eff.” value is 45% and the pEC50 is reported as 6.41.
`CCCCCCCCc1ccc(-c2ccc(C(=O)O)cc2)cc1` [Compound 53]: the “% Eff.” value was 99%.
Regarding `CCCCCCCCc1ccc(-c2ccc(C(=O)O)cc2)cc1` [Compound 6], the “% Eff.” value was 104%.
Take `CCCCCCCc1ccc(-c2ccc(C(=O)NN)cc2)cc1` [Compound 45]: the “% Eff.” value is on record as 78%.
`CC(C)CCCCOc1ccc(-c2ccc(C(=O)O)cc2)cc1` [Compound 25]: the “% Eff.” value is given as 65%.
With `CCCCCCCc1ccc(-c2ccc(C(=O)NCCc3ccccn3)cc2)cc1` [Compound 59], the “% Eff.” value is on record as 35%.
For `CCCCOCCOc1ccc(-c2ccc(C(=O)O)cc2)cc1` [Compound 18], the “% Eff.” value is 108%.
As to `CCCCNC(=O)COc1nc(-c2ccc(C(=O)O)cc2)sc1C` [Compound 62], the “% Eff.” value is listed as 37%.
With `CCCCCCCCc1ccc(-c2ccc(C(=O)O)cc2F)cc1` [Compound 38], the “% Eff.” value is 70% and the pEC50 is listed as 6.81.
With `CCCCCCCCc1ccc(-c2ccc(C(=O)NS(C)(=O)=O)cc2)cc1` [Compound 60], the “% Eff.” value is 51%.
As for `Cc1sc(-c2ccc(C(=O)O)cc2)nc1OCC(=O)NC(C)CCC(C)C` (stereo not drawn) [Compound 57], the “% Eff.” value was 77%.
`Cc1sc(-c2ccc(C(=O)O)cc2)nc1OCC(=O)NC1CCCC1` [Compound 61]: the “% Eff.” value is reported as 39%.
With `CCCCc1ccc(-c2ccc(C(=O)O)cc2)cc1` [Compound 26], the “% Eff.” value is on record as 36% and the pEC50 was 7.15.
Turning to `CCCCCCCc1ccc(-c2ccc(C(=O)NO)cc2)cc1` [Compound 37], the “% Eff.” value is given as 49%.
In the case of `CCCCOCCOc1cc(C)c(-c2ccc(C(=O)O)cc2)cc1C` [Compound 44], the “% Eff.” value was 41%.
With `CCCCCCCCCCOc1ccc(-c2ccc(C(=O)O)cc2)cc1` [Compound 20], the “% Eff.” value is 98%.
Regarding `O=C(O)c1ccc(-c2ccc(OCCC=C(C3CC3)C3CC3)cc2)cc1` [Compound 47], the “% Eff.” value was 58%.
As to `CCCCCCCCc1ccc(-c2ccc(C(=O)n3ccnc3)cc2)cc1` [Compound 8], the “% Eff.” value is 79% and the negative logarithm of the EC50 (pEC50) was 7.66.
For the compound `CCCCCc1ccc(-c2ccc(C(=O)O)cc2)cc1` [Compound 4], the “% Eff.” value is 44%.
Turning to `CCCCCCCc1ccc(-c2ccc(C(=O)O)cc2)cc1` [Compound 9], the “% Eff.” value was 76%.
Take `CCCCCCc1ccc(-c2ccc(C(=O)Nc3ccc(C)cn3)cc2)cc1` [Compound 63]: the “% Eff.” value was 36%.
With `CCCCCCOc1cc(C)c(-c2ccc(C(=O)O)cc2)cc1C` [Compound 11], the “% Eff.” value is reported as 78%.
On to `CCCCCCCCc1ccc(-c2ccc(C(=O)C(=O)O)cc2)cc1` [Compound 31], for which the “% Eff.” value is 80%.
As to `CCCCCCCCN1CCN(c2ccc(C(=O)O)cc2)CC1` [Compound 50], the “% Eff.” value is 85%.
On to `CCCC1CCCC(c2ccc(-c3ccc(C(=O)O)cc3)cc2)CC1` (stereo not drawn) [Compound 49], for which the “% Eff.” value is on record as 59%.
Consider `CCCCCCCCCc1ccc(-c2ccc(C(=O)O)cc2)cc1` [Compound 2], for which the “% Eff.” value is 126%.
`CCCCCCCc1ccc(-c2ccc(C(=O)O)cc2)cc1` [Compound 10]: the “% Eff.” value is given as 64%.
Turning to `CCCCCCc1ccc(-c2ccc(C(=O)O)cc2)cc1` [Compound 16], the “% Eff.” value was 37%.
`CCCCCCCCc1ccc(-c2ccc(C(=O)Nc3ccc(C)cn3)cc2)cc1` [Compound 29]: the “% Eff.” value was 78%.
With `CCCCCCCOc1ccc(-c2ccc(C(=O)O)cc2)cc1` [Compound 24], the “% Eff.” value is on record as 58%.
Regarding `CCCOCCOc1nc(-c2ccc(C(=O)O)cc2)sc1C` [Compound 33], the “% Eff.” value was 98%.
For the compound `CCCCCCOc1ccc(-c2ccc(C(=O)O)cc2)cc1` [Compound 12], the “% Eff.” value is reported as 72%.
Take `CCCCCCCCc1ccc(-c2ccc(C(=O)n3cnc(NC(C)=O)n3)cc2)cc1` [Compound 15]: the “% Eff.” value is listed as 76%.
For `CCCCCCCc1ccc(-c2ccc(C(=O)O)c(F)c2)cc1` [Compound 36], the “% Eff.” value is given as 42%.
Regarding `CCCCCCCCc1ccc(-c2ccc(C(=O)O)c(C)c2)cc1` [Compound 55], the “% Eff.” value is on record as 84%.
With `CCCCCCCCOc1ccc(-c2ccc(C(=O)O)cc2)cc1` [Compound 32], the “% Eff.” value is listed as 70%.
Regarding `CCCCCCCc1ccc(-c2ccc(C(=O)O)cc2F)cc1` [Compound 22], the “% Eff.” value was 36%.

The test system of the next assay is mouse ES cells (RARβ, Cyp26a1 transcripts). Put plainly: RT-PCR of RA-responsive genes in WT and RARβ KO ES cells. Format: cell-based. Conditions: WT ES cells, presence of RA vs untreated. As to the method:
C57BL/6 RARβ heterozygous mice were provided by Dr. Pierre Chambon (Strasbourg-Cedex, France) (26). Homozygous RARβ-null mice were obtained following mating of RARβ heterozygous mice. Blastocysts were harvested on day E3.5 and individually cultured on ES cell medium as previously described (28).
Various markers for endodermal (day 5), pancreatic progenitor (day 11), endocrine progenitor (day 14) and endocrine (day 17) differentiation were analyzed by semi-quantitative RT-PCR in J1 wild-type and RARβ KO ESCs. Primers were designed around introns whenever possible. Total RNA extraction, semi-quantitative and quantitative PCR reactions were performed as previously described (18). Amplified PCR products were resolved on 1.5% agarose gels and visualized by staining with ethidium bromide. PCR bands were sequenced for verification of the correct amplicon. Quantitation of semi-quantitative gels was performed using ImageJ software (National Institutes of Health) from three experimental biological repeats.
With `CC1=C(/C=C/C(C)=C/C=C/C(C)=C/C(=O)O)C(C)(C)CCC1` [RA, all trans-retinoic acid], the “RARβ signal (RT-PCR)” value was “stronger RARβ signal”.

The same assay, now with this note: WT and RARβ KO ES cells, RA-treated.
As for `CC1=C(/C=C/C(C)=C/C=C/C(C)=C/C(=O)O)C(C)(C)CCC1` [RA, all trans-retinoic acid], the “Cyp26a1 expression (RT-PCR)” value was “observed in both WT and RARβ KO ES cells”.
